≈ marks a conversion by molar mass, not a printed value.
Tests used:
Solubility = assay type: physicochemical; settings: for solubility compared to MK-28 (fold higher): relative to MK-28
Method: (§1) The solubility and lipophilicity of GLB7 and GLB11, two exemplary compounds according to some embodiments of the present invention, were measured compared to the PERK activator MK-28.

Lipophilicity (logD7.4) = assay type: physicochemical
Method: as §1

PERK = molecular target: T1, PERK (Homo sapiens, UniProt Q9NZJ5); test: PERK activation: eIF2α phosphorylation relative to total eIF2α in HEK293 cells (Western blot); assay type: cell-based; settings: for increase in eIF2α phosphorylation relative to total eIF2α: 24 hours
T1 construct: endogenous in cells; host or cells: HEK293
T1 sequence (Q9NZJ5 30-1116): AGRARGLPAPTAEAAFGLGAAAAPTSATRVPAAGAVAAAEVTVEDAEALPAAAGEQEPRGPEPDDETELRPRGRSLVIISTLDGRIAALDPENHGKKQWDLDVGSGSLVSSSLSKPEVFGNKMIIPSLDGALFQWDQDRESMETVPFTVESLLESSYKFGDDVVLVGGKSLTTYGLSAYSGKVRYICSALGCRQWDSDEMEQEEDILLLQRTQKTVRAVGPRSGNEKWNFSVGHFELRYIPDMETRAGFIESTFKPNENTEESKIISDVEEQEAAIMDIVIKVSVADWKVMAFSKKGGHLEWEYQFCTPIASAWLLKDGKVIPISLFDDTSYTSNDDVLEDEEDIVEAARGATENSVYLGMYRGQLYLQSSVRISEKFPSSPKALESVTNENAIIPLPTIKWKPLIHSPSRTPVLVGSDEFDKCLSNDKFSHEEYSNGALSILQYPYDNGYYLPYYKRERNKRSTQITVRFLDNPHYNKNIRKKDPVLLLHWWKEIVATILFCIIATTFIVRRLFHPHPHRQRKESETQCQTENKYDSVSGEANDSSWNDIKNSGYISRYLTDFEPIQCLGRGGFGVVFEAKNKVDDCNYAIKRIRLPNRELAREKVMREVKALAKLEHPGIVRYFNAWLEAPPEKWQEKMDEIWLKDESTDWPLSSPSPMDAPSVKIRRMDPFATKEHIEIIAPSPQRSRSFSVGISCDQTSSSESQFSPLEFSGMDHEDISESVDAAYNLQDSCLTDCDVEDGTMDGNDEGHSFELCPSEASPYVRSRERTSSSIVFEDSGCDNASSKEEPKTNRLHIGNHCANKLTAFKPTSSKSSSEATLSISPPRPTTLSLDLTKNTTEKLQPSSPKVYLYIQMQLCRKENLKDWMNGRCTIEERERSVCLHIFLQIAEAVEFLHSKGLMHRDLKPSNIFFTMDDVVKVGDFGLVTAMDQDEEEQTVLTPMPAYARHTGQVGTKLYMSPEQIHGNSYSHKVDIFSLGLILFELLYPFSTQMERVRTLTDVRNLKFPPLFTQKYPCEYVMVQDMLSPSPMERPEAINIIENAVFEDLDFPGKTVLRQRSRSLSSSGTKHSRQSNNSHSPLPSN
Method: FIG. 3A presents comparative bar graphs showing the effect of treatment with MK-28 or GLB7 (5 μM, 10 μM or 20 μM, as indicated), on the levels of eIF2α-phosphorylation (eIF2α-P) relatively to total eIF2α (eIF2α) in lysed HEK293 cells. Treatment with MK-28 began 24 hours before lysis. Data was obtained from quantification of Western blots (FIG. 3B), and immunoblotting was performed with anti-eIF2α-P or anti-total eIF2α antibodies.
For this purpose, HEK293 cells were untreated or treated with 5, 10 or 20 μM GLB7 or MK-28. After 24 hours, the cells were lysed and the phosphorylated eIF2α levels were measured relatively to the total eIF2α (a substrate of PERK).

STHdhQ111/111 cells = test: ER stress (tunicamycin)-induced apoptosis in STHdhQ111/111 cells; assay type: cell-based, murine; settings: 10 μM compound, tunicamycin 48 hours, read from FIG. 2
Method: FIG. 2 presents comparative plots showing the apoptosis rate of STHdh^Q111/111 cells as a function of concentration of the exemplary compounds GLB11 and GLC19, following incubation with tunicamycin for 48 hours), as described for FIG. 1. P values *<0.05, **<0.01, ***<0.001. The asterisks indicate the significance compared to untreated cells.
Cell culture and transfections: Mouse embryonic fibroblasts (MEF) cells were grown as described in the art. Murine striatal cell line expressing full-length polyQ-expanded Htt (STHdhQ111/111) cells were grown as described in Leitman et al. [PLOS One 2014, 9 (3): e90803]. HEK 293 and VERO cells were grown in DMEM supplemented with 10% bovine calf serum at 37° C. under 5% CO2.
Apoptosis: Apoptosis was measured by cell cycle progression using propidium iodide (PI), considering the fraction beneath G0/G1.
Statistical analysis: Generally, the results are expressed as mean±standard deviation of 3 independent experiments. Apoptosis in the presence of tunicamycin and in the absence of other compounds was normalized to 100 to allow comparison between experiments. Significance by Two-tailed Student's t-test.
In order to assess the effect of the exemplary compounds on apoptosis, similar assays were performed in mouse embryonic fibroblasts (MEF; FIG. 1) and in STHdhQ111/111 cells (FIG. 2).

logD (Lipophilicity (logD7.4); pH 7.4) | Compound | solubility (Solubility) [µM] | solubility compared to MK-28 (fold higher) (Solubility) [fold] | lipophilicity compared to MK-28 (Lipophilicity (logD7.4); relative to MK-28) | increase in eIF2α phosphorylation relative to total eIF2α (PERK; 5 μM) [%] | increase in eIF2α phosphorylation relative to total eIF2α (PERK; 10 μM) [%] | increase in eIF2α phosphorylation relative to total eIF2α (PERK; 20 μM) [%] | PERK activation compared to MK-28 (PERK; lowest examined dose of 5 μM) | reduction of apoptosis (STHdhQ111/111 cells)
– | Oc1ccc(C=NNc2nc(-c3ccccc3)cc(-c3ccccc3)n2)cc1O (racemic) [GLB7, 4-((2-(4,6-diphenylpyrimidin-2-yl)hydrazono)methyl)benzene-1,2-diol] | 16 (≈ 6.12 µg/mL) | > 10 | decreased | ~70 | 50 | 65 | higher levels of PERK activation | –
– | CN(/N=C/c1ccc(C(F)(F)F)cc1)c1nc(-c2ccccc2)cc(-c2ccccc2)n1 [GLC19, (E)-2-(1-methyl-2-(4-(trifluoromethyl)benzylidene) hydrazinyl)-4,6-diphenyl pyrimidine] | – | – | – | – | – | – | – | about 20%
4.8 | CN(NCc1ccc(O)c(O)c1)c1nc(-c2ccccc2)cc(-c2ccccc2)n1 [GLB11] | 6 (≈ 2.39 µg/mL) | > 4 | – | – | – | – | – | about 20%

— patent publication US20250214982A1, “COMPOUNDS USABLE AS MODULATORS OF PERK ACTIVITY” (Ramot at Tel-Aviv University Ltd., priority 2022, published 2025)
